In ChEMBL document CHEMBL3045060, “Synthesis of some urea and thiourea derivatives of naphtha[1,2-d]thiazol-2-amine as anti-Parkinsonian agents that cause neuroprotection against haloperidol-induced oxidative stress in mice” (2009):

Experiments:
Type in all cases: functional
Mus musculus [1] = assay: Neuroprotective activity in haloperidol-induced catalepsy Mus musculus Swiss albino (mouse) model assessed as mean descent time at 100 mg/kg, po administered 30 min before haloperidol challenge measured at 60 min post challenge
Mus musculus [2] = assay: Neuroprotective activity in haloperidol-induced catalepsy Mus musculus Swiss albino (mouse) model assessed as mean descent time at 100 mg/kg, po administered 30 min before haloperidol challenge measured at 90 min post challenge
Mus musculus [3] = assay: Neuroprotective activity in haloperidol-induced catalepsy Mus musculus Swiss albino (mouse) model assessed as mean cumulative descent time at 100 mg/kg, po administered 30 min before haloperidol challenge (reference value: 33 +/- 1.34 min)
Mus musculus [4] = assay: Neuroprotective activity in haloperidol-induced catalepsy Mus musculus Swiss albino (mouse) model assessed as mean descent time at 100 mg/kg, po administered 30 min before haloperidol challenge measured at 120 min post challenge
Mus musculus [5] = assay: Neuroprotective activity in haloperidol-induced catalepsy Mus musculus Swiss albino (mouse) model assessed as mean descent time at 100 mg/kg, po administered 30 min before haloperidol challenge measured at 150 min post challenge
Mus musculus [6] = assay: Neuroprotective activity in haloperidol-induced catalepsy Mus musculus Swiss albino (mouse) model assessed as mean descent time at 100 mg/kg, po administered 30 min before haloperidol challenge measured at 180 min post challenge
Mus musculus [7] = assay: Neuroprotective activity in Mus musculus Swiss albino (mouse) model assessed as reduction in haloperidol-induced catalepsy at 100 mg/kg, ip administered 30 min before haloperidol challenge measured for 30 to 180 min; parameters: scale not given: the % may be the effect or the level left; conditions: route intraperitoneal
Mus musculus [8] = assay: Neuroprotective activity in haloperidol-induced catalepsy Mus musculus Swiss albino (mouse) model assessed as mean descent time at 100 mg/kg, po administered 30 min before haloperidol challenge measured at 30 min post challenge
Mus musculus [9] = assay: (§1) Neuroprotective activity in haloperidol-induced catalepsy Mus musculus Swiss albino (mouse) model assessed as GSH level per gram of brain tissue at 100 mg/kg, po administered 30 min before haloperidol challenge measured after 4 hr post challenge by spectrophotometry (reference value: 23.45 +/- 0.23 ug/g tissue)
Mus musculus [10] = assay: as §1, with “GSH-Px activity” for “GSH level”, “mg protein in” for “gram of”, “homogenate” for “tissue”, “2.129” for “23.45”, “0.06 U/mg protein)” for “0.23 ug/g tissue)”
Mus musculus [11] = assay: (§2) Neuroprotective activity in haloperidol-induced catalepsy Mus musculus Swiss albino (mouse) model assessed as Cu-Zn-SOD activity per gram protein in brain homogenate at 100 mg/kg, po administered 30 min before haloperidol challenge measured after 4 hr post challenge by NBT reduction assay (reference value: 1.794 +/- 0.03 U/g protein)
Mus musculus [12] = assay: as §2, with “inhibition of MDA equivalent TBARS release” for “Cu-Zn-SOD activity”, “mg” for “gram”, “spectrophotometry” for “NBT reduction assay”, “1.157” for “1.794”, “0.06 nmol/mg” for “0.03 U/g”

SMILES	Time (Mus musculus [1]) [s]	Time (Mus musculus [2]) [s]	Time (Mus musculus [3]) [min]	Time (Mus musculus [4]) [s]	Time (Mus musculus [5]) [s]	Time (Mus musculus [6]) [s]	Activity (Mus musculus [7]) [%]	Time (Mus musculus [8]) [s]	Activity (Mus musculus [9]) [µg/g]	Activity (Mus musculus [10]) [U/mg]	Activity (Mus musculus [11]) [U/g protein]	Activity (Mus musculus [12]) [nmol/mg protein]
S=C(Nc1nc2c(ccc3ccccc32)s1)Nc1ccccc1Br	160	189	18.1	207	223	226	30.96	83	–	–	–	–
S=C(Nc1ccc(Br)cc1)Nc1nc2c(ccc3ccccc32)s1	139	161	17	222	223	220	35.27	57	–	–	–	–
S=C(Nc1nc2c(ccc3ccccc32)s1)Nc1ccccc1Cl	156	173	16.1	190	189	186	39.14	69	–	–	–	–
S=C(Nc1ccc(Cl)cc1)Nc1nc2c(ccc3ccccc32)s1	169	198	18.9	216	232	228	27.88	92	–	–	–	–
O=[N+]([O-])c1ccccc1NC(=S)Nc1nc2c(ccc3ccccc32)s1	36	71	7.43	88	109	122	72.97	20	12.5	1.77	1.398	3.226
O=[N+]([O-])c1ccc(NC(=S)Nc2nc3c(ccc4ccccc43)s2)cc1	178	199	17.8	201	207	208	32.13	77	–	–	–	–
Cc1ccccc1NC(=S)Nc1nc2c(ccc3ccccc32)s1	110	138	13.3	157	160	166	49.87	68	–	–	–	–
Cc1ccc(NC(=S)Nc2nc3c(ccc4ccccc43)s2)cc1	114	136	13.8	161	173	172	47.97	72	–	–	–	–
O=C(Nc1ccccc1)Nc1nc2c(ccc3ccccc32)s1	132	156	14.7	174	172	176	44.44	72	–	–	–	–
COc1ccc(NC(=O)Nc2nc3c(ccc4ccccc43)s2)cc1	99	122	11.1	131	136	138	58.51	41	–	–	–	–
COc1ccc(NC(=O)Nc2nc3c(ccc4ccccc43)s2)c(OC)c1	35	39	6.92	68	120	121	75	32	13.6	1.61	1.469	2.706
COc1cc(NC(=O)Nc2nc3c(ccc4ccccc43)s2)cc(OC)c1OC	68	85	8.12	89	107	109	70.29	29	–	–	–	–
O=C(Nc1ccc(Oc2ccccc2)cc1)Nc1nc2c(ccc3ccccc32)s1	110	119	11.9	132	135	140	55.56	76	–	–	–	–
O=C(Nc1nc2c(ccc3ccccc32)s1)Nc1ccccc1F	118	188	18.6	236	245	272	29.12	57	–	–	–	–
O=C(Nc1ccc(F)cc1)Nc1nc2c(ccc3ccccc32)s1	159	196	18.3	207	226	226	30.3	84	–	–	–	–
O=C(Nc1nc2c(ccc3ccccc32)s1)Nc1ccccc1Br	131	145	16.1	197	219	200	38.74	77	–	–	–	–

SMILES	Time (Mus musculus [1]) [s]	Time (Mus musculus [2]) [s]	Time (Mus musculus [3]) [min]	Time (Mus musculus [4]) [s]	Time (Mus musculus [5]) [s]	Time (Mus musculus [6]) [s]	Activity (Mus musculus [7]) [%]	Time (Mus musculus [8]) [s]	Activity (Mus musculus [9]) [µg/g]	Activity (Mus musculus [10]) [U/mg]	Activity (Mus musculus [11]) [U/g protein]	Activity (Mus musculus [12]) [nmol/mg protein]
O=C(Nc1ccc(Br)cc1)Nc1nc2c(ccc3ccccc32)s1	123	156	16.4	191	214	218	37.76	82	–	–	–	–
O=C(Nc1nc2c(ccc3ccccc32)s1)Nc1ccccc1Cl	141	159	16.5	188	211	232	37.37	59	–	–	–	–
O=C(Nc1ccc(Cl)cc1)Nc1nc2c(ccc3ccccc32)s1	127	171	16.2	202	199	194	38.61	78	–	–	–	–
O=C(Nc1nc2c(ccc3ccccc32)s1)Nc1cc(C(F)(F)F)ccc1Cl	114	141	12.9	156	150	148	51.37	67	–	–	–	–
O=C(Nc1nc2c(ccc3ccccc32)s1)Nc1ccccc1[N+](=O)[O-]	54	57	7.67	87	98	145	72.05	19	–	–	–	–
O=C(Nc1ccc([N+](=O)[O-])cc1)Nc1nc2c(ccc3ccccc32)s1	113	176	18.1	229	245	269	31.28	51	–	–	–	–
Cc1ccccc1NC(=O)Nc1nc2c(ccc3ccccc32)s1	116	138	13.9	166	170	172	47.64	71	–	–	–	–
Cc1ccc(NC(=O)Nc2nc3c(ccc4ccccc43)s2)cc1	113	137	13.7	161	168	171	48.56	69	–	–	–	–
S=C(Nc1ccccc1)Nc1nc2c(ccc3ccccc32)s1	129	151	14.7	178	174	182	44.63	65	–	–	–	–
COc1ccc(NC(=S)Nc2nc3c(ccc4ccccc43)s2)cc1	112	116	11.2	128	129	145	58.05	44	–	–	–	–
COc1ccccc1NC(=S)Nc1nc2c(ccc3ccccc32)s1	44	65	6.8	87	98	95	75.46	19	13.1	2.1	1.684	2.045
Fc1ccccc1NC(=S)Nc1nc2c(ccc3ccccc32)s1	143	152	16.2	183	206	234	38.35	57	–	–	–	–
Fc1ccc(NC(=S)Nc2nc3c(ccc4ccccc43)s2)cc1	98	167	17.1	246	232	241	34.95	43	–	–	–	–
O=C(CCCN1CCC(O)(c2ccc(Cl)cc2)CC1)c1ccc(F)cc1 [HALOPERIDOL]	217	268	26	300	300	300	–	176	6.85	1.14	–	–
N[C@@H](Cc1ccc(O)c(O)c1)C(=O)O [LEVODOPA]	49	99	9.3	119	122	137	65.64	32	–	–	–	–
